Reference: patent publication US20090005444A1, “USE OF PROPOFOL PRODRUGS FOR TREATING ALCOHOL WITHDRAWAL, CENTRAL PAIN, ANXIETY OR PRURITUS” (XenoPort, Inc., priority 2007, published 2009)

Assays:
male rats = assay: Multiple dose study in rats, oral once a day for five days; format: in vivo; conditions: oral gavage once a day for five days, 49 to 97 mg-eq/kg propofol
Protocol: Multiple dose studies in rats were performed by orally administering compound (2) formulated in water to groups of male rats at doses of 49 mg-eq/kg to 97 mg-eq/kg propofol for a period of five days, by oral gavages administered once a day.

rats = assay: Acute toxicity study, single oral dose in rats; format: in vivo
Protocol: Acute toxicity studies in rats were undertaken to assess the tolerance of a single oral dose of compound (2) formulated in water. […] Complete recovery from hypoactivity, sedation, and anesthesia occurred in all rats within about 8 hours after dosing. Doses above about 1552 mg-eq/kg (about 800 mg-eq/kg of propofol) were not tested.

male beagle dogs = assay: Acute toxicity study, single oral dose in dogs; format: in vivo
Protocol: Acute toxicity studies were also performed by orally administering a single dose of compound (2) formulated in water to groups of male beagle dogs at doses from about 25 mg-eq/kg to about 150 mg-eq/kg propofol.

[1] = oral dosing in rats; cited from earlier work
central pain = conditions: subanesthetic dose 0.2 mg/kg IV; cited from earlier work
pruritus = conditions: subhypnotic doses; cholestasis and spinal morphine administration; cited from earlier work
anxiety = conditions: animal studies; cited from earlier work
delirium tremens = conditions: sedative and subsedative doses of propofol; cited from earlier work
[2] = rats, single oral dose about 49 to about 388 mg-eq/kg propofol
[3] = rats, single oral dose about 582 to about 970 mg-eq/kg propofol
[4] = rats, single oral dose about 1164 to about 1552 mg-eq/kg propofol

## CC(C)c1cccc(C(C)C)c1OC(=O)OC[C@H](N)C(=O)O [compound (2), (S)-2-amino-3-(2,6-diisopropyl-phenoxycarbonyloxy)-propanoic acid]
Male rats
  adverse effects: No adverse effects were observed
  sedation or anesthesia: No sedation or anesthesia was observed
  tolerance of multiple oral doses: well tolerated
rats; all rats, after single oral dose
  time to complete recovery from hypoactivity, sedation, and anesthesia: ≤ 8 h
rats; rats, formulated in water, about 49 to about 1552 mg-eq/kg propofol
  tolerance of a single oral dose: well tolerated
rats; [2]
  onset of transient hypoactivity after dose: ≤ 30 min
  transient hypoactivity maintained, time post dose: up to 4 hours
rats; [3]
  onset of sedation after dosing: ≤ 1.5 h
  sedation continued, time post dose: up to 4 hours
rats; [4]
  anesthesia continued, time post dose: up to 2 hours
  onset of anesthesia after dosing: ≤ 1 h
Male beagle dogs; formulated in water, about 25 to about 150 mg-eq/kg propofol
  tolerance of a single oral dose: well tolerated
Male beagle dogs; single oral dose about 25 to about 150 mg-eq/kg propofol
  sedation or anesthesia: No sedation or anesthesia was observed

## CC(C)c1cccc(C(C)C)c1O [propofol, 2,6-diisopropylphenol]
[1]
  administered drug undergoing first pass metabolism: approximately 90%
Central pain
  effect on SCIP and CPSP central pain: effective in reducing both SCIP and CPSP central pain
pruritus
  effect on pruritus: effective in controlling pruritus associated with cholestasis and spinal morphine administration
anxiety
  anxiolytic effect: exerts an anxiolytic effect independent of any sedative effect
Delirium tremens
  effect on symptoms of delirium tremens: effective in reducing the symptoms of delirium tremens
